Laboratory results published in the NIST ThermoML archive (doi:10.1016/j.fluid.2016.02.009).
Numbers after ± are expanded uncertainties.

Details: Liquid, Vibrating tube method

CC(C)OC(C)C [diisopropyl ether]
Details | mass density [kg/m3]
283.15 K, 100 kPa | 733.83 ± 0.3
283.15 K, 5000 kPa | 739.6 ± 0.33
283.15 K, 10000 kPa | 744.9 ± 0.37
283.15 K, 15000 kPa | 749.85 ± 0.4
283.15 K, 20000 kPa | 754.49 ± 0.44
283.15 K, 25000 kPa | 758.89 ± 0.48
283.15 K, 30000 kPa | 763.08 ± 0.51
283.15 K, 35000 kPa | 767.08 ± 0.55
283.15 K, 40000 kPa | 770.91 ± 0.59
283.15 K, 45000 kPa | 774.59 ± 0.63
283.15 K, 50000 kPa | 778.13 ± 0.67
283.15 K, 55000 kPa | 781.56 ± 0.7
283.15 K, 60000 kPa | 784.88 ± 0.74
283.15 K, 65000 kPa | 788.07 ± 0.77
288.15 K, 100 kPa | 728.69 ± 0.3
288.15 K, 5000 kPa | 734.61 ± 0.33
288.15 K, 10000 kPa | 740.14 ± 0.37
288.15 K, 15000 kPa | 745.3 ± 0.41
288.15 K, 20000 kPa | 750.09 ± 0.44
288.15 K, 25000 kPa | 754.61 ± 0.48
288.15 K, 30000 kPa | 758.9 ± 0.52
288.15 K, 35000 kPa | 763.01 ± 0.56
288.15 K, 40000 kPa | 766.92 ± 0.6
288.15 K, 45000 kPa | 770.68 ± 0.64
288.15 K, 50000 kPa | 774.31 ± 0.67
288.15 K, 55000 kPa | 777.77 ± 0.71
288.15 K, 60000 kPa | 781.16 ± 0.75
288.15 K, 65000 kPa | 784.42 ± 0.78
293.15 K, 100 kPa | 723.51 ± 0.3
293.15 K, 5000 kPa | 729.62 ± 0.34
293.15 K, 10000 kPa | 735.37 ± 0.37
293.15 K, 15000 kPa | 740.69 ± 0.41
293.15 K, 20000 kPa | 745.62 ± 0.45
293.15 K, 25000 kPa | 750.29 ± 0.48
293.15 K, 30000 kPa | 754.71 ± 0.52
293.15 K, 35000 kPa | 758.91 ± 0.57
293.15 K, 40000 kPa | 762.93 ± 0.61
293.15 K, 45000 kPa | 766.78 ± 0.64
293.15 K, 50000 kPa | 770.48 ± 0.68
293.15 K, 55000 kPa | 774.06 ± 0.72
293.15 K, 60000 kPa | 777.49 ± 0.75
293.15 K, 65000 kPa | 780.83 ± 0.79
298.15 K, 100 kPa | 718.29 ± 0.3
298.15 K, 5000 kPa | 724.67 ± 0.34
298.15 K, 10000 kPa | 730.59 ± 0.37
298.15 K, 15000 kPa | 736.05 ± 0.41
298.15 K, 20000 kPa | 741.13 ± 0.45
298.15 K, 25000 kPa | 745.92 ± 0.49
298.15 K, 30000 kPa | 750.46 ± 0.53
298.15 K, 35000 kPa | 754.77 ± 0.57
298.15 K, 40000 kPa | 758.89 ± 0.61
298.15 K, 45000 kPa | 762.82 ± 0.65
298.15 K, 50000 kPa | 766.6 ± 0.69
298.15 K, 55000 kPa | 770.25 ± 0.73
298.15 K, 60000 kPa | 773.75 ± 0.76
298.15 K, 65000 kPa | 777.14 ± 0.8
303.15 K, 100 kPa | 713.03 ± 0.3
303.15 K, 5000 kPa | 719.61 ± 0.34
303.15 K, 10000 kPa | 725.79 ± 0.38
303.15 K, 15000 kPa | 731.48 ± 0.41
303.15 K, 20000 kPa | 736.81 ± 0.45
303.15 K, 25000 kPa | 741.76 ± 0.49
303.15 K, 30000 kPa | 746.43 ± 0.53
303.15 K, 35000 kPa | 750.85 ± 0.58
303.15 K, 40000 kPa | 755.09 ± 0.62
303.15 K, 45000 kPa | 759.12 ± 0.66
303.15 K, 50000 kPa | 763 ± 0.7
303.15 K, 55000 kPa | 766.7 ± 0.73
303.15 K, 60000 kPa | 770.24 ± 0.77
303.15 K, 65000 kPa | 773.7 ± 0.81
308.15 K, 100 kPa | 707.73 ± 0.3
308.15 K, 5000 kPa | 714.61 ± 0.34
308.15 K, 10000 kPa | 720.99 ± 0.38
308.15 K, 15000 kPa | 726.79 ± 0.42
308.15 K, 20000 kPa | 732.2 ± 0.46
308.15 K, 25000 kPa | 737.29 ± 0.49
308.15 K, 30000 kPa | 742.07 ± 0.54
308.15 K, 35000 kPa | 746.63 ± 0.58
308.15 K, 40000 kPa | 750.94 ± 0.62
308.15 K, 45000 kPa | 755.05 ± 0.67
308.15 K, 50000 kPa | 759.01 ± 0.71
308.15 K, 55000 kPa | 762.79 ± 0.74
308.15 K, 60000 kPa | 766.45 ± 0.78
308.15 K, 65000 kPa | 769.97 ± 0.82
313.15 K, 100 kPa | 702.38 ± 0.3
313.15 K, 5000 kPa | 709.64 ± 0.34
313.15 K, 10000 kPa | 716.16 ± 0.38
313.15 K, 15000 kPa | 722.17 ± 0.42
313.15 K, 20000 kPa | 727.77 ± 0.46
313.15 K, 25000 kPa | 732.97 ± 0.5
313.15 K, 30000 kPa | 737.92 ± 0.54
313.15 K, 35000 kPa | 742.55 ± 0.59
313.15 K, 40000 kPa | 746.98 ± 0.63
313.15 K, 45000 kPa | 751.2 ± 0.67
313.15 K, 50000 kPa | 755.21 ± 0.71
313.15 K, 55000 kPa | 759.09 ± 0.75
313.15 K, 60000 kPa | 762.83 ± 0.79
313.15 K, 65000 kPa | 766.39 ± 0.83
318.15 K, 100 kPa | 697.07 ± 0.3
318.15 K, 5000 kPa | 704.53 ± 0.34
318.15 K, 10000 kPa | 711.3 ± 0.38
318.15 K, 15000 kPa | 717.51 ± 0.42
318.15 K, 20000 kPa | 723.27 ± 0.46
318.15 K, 25000 kPa | 728.67 ± 0.5
318.15 K, 30000 kPa | 733.74 ± 0.55
318.15 K, 35000 kPa | 738.49 ± 0.59
318.15 K, 40000 kPa | 743.01 ± 0.64
318.15 K, 45000 kPa | 747.34 ± 0.68
318.15 K, 50000 kPa | 751.47 ± 0.72
318.15 K, 55000 kPa | 755.41 ± 0.76
318.15 K, 60000 kPa | 759.21 ± 0.8
318.15 K, 65000 kPa | 762.85 ± 0.83
323.15 K, 100 kPa | 691.61 ± 0.3
323.15 K, 5000 kPa | 699.42 ± 0.34
323.15 K, 10000 kPa | 706.46 ± 0.38
323.15 K, 15000 kPa | 712.89 ± 0.42
323.15 K, 20000 kPa | 718.83 ± 0.47
323.15 K, 25000 kPa | 724.38 ± 0.51
323.15 K, 30000 kPa | 729.58 ± 0.56
323.15 K, 35000 kPa | 734.45 ± 0.6
323.15 K, 40000 kPa | 739.08 ± 0.64
323.15 K, 45000 kPa | 743.5 ± 0.69
323.15 K, 50000 kPa | 747.72 ± 0.73
323.15 K, 55000 kPa | 751.72 ± 0.77
323.15 K, 60000 kPa | 755.59 ± 0.81
323.15 K, 65000 kPa | 759.26 ± 0.84
328.15 K, 100 kPa | 686.17 ± 0.3
328.15 K, 5000 kPa | 694.18 ± 0.34
328.15 K, 10000 kPa | 701.52 ± 0.39
328.15 K, 15000 kPa | 708.19 ± 0.43
328.15 K, 20000 kPa | 714.34 ± 0.47
328.15 K, 25000 kPa | 720.04 ± 0.51
328.15 K, 30000 kPa | 725.37 ± 0.56
328.15 K, 35000 kPa | 730.4 ± 0.61
328.15 K, 40000 kPa | 735.15 ± 0.65
328.15 K, 45000 kPa | 739.67 ± 0.69
328.15 K, 50000 kPa | 743.94 ± 0.74
328.15 K, 55000 kPa | 748.05 ± 0.78
328.15 K, 60000 kPa | 751.94 ± 0.82
328.15 K, 65000 kPa | 755.64 ± 0.85
333.15 K, 100 kPa | 681 ± 0.3
333.15 K, 5000 kPa | 688.97 ± 0.34
333.15 K, 10000 kPa | 696.58 ± 0.39
333.15 K, 15000 kPa | 703.52 ± 0.43
333.15 K, 20000 kPa | 709.85 ± 0.47
333.15 K, 25000 kPa | 715.73 ± 0.52
333.15 K, 30000 kPa | 721.21 ± 0.57
333.15 K, 35000 kPa | 726.36 ± 0.61
333.15 K, 40000 kPa | 731.23 ± 0.66
333.15 K, 45000 kPa | 735.85 ± 0.7
333.15 K, 50000 kPa | 740.18 ± 0.74
333.15 K, 55000 kPa | 744.38 ± 0.78
333.15 K, 60000 kPa | 748.24 ± 0.82
333.15 K, 65000 kPa | 752.02 ± 0.86
